Experimental data published in ChEMBL document CHEMBL1140580, “Synthesis and characterization of trans-4-(4-chlorophenyl)pyrrolidine-3-carboxamides of piperazinecyclohexanes as ligands for the melanocortin-4 receptor” (Bioorg Med Chem Lett, 2007).

Legend:
Melanocortin receptor 4 [1] = target: T1, Melanocortin receptor 4 (Homo sapiens, UniProt P32245); assay: Displacement of […]NDPMSH from human MC4R expressed in HEK293 cells; assay type: cell-based
Melanocortin receptor 4 [2] = target: T1, Melanocortin receptor 4; assay: Agonist activity at MC4R assessed as stimulation of cAMP release; assay type: functional
Melanocortin receptor 4 [3] = target: T1, Melanocortin receptor 4; assay: Agonist activity at MC4R assessed as stimulation of cAMP release relative to alphaMSH; assay type: functional

T1 sequence (P32245 whole entry): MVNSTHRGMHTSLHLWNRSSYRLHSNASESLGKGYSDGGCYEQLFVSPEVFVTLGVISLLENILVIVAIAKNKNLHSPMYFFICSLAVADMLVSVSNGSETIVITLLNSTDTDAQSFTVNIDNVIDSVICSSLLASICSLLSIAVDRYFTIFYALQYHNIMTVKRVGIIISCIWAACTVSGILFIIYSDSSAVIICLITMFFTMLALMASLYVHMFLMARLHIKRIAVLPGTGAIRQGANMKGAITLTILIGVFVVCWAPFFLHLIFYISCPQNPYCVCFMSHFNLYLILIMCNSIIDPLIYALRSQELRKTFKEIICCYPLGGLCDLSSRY

Row | Ki (Melanocortin receptor 4 [1]) | EC50 (Melanocortin receptor 4 [2]) | Intrinsic activity (Melanocortin receptor 4 [3]) | Compound
1 | 3000 nM |  |  | CC(=O)N1C[C@H](C(=O)N2CCN(C3(CNCc4ccncc4)CCCCC3)CC2)[C@@H](c2ccc(Cl)cc2)C1
2 | 17 nM | 1800 nM | 33% | O=C([C@H]1CN(C2CCCC2)C[C@@H]1c1ccc(Cl)cc1)N1CCN(C2(CNCc3ccccc3)CCCCC2)CC1
3 | 430 nM |  | 3% | CC(N)C(=O)N1C[C@H](C(=O)N2CCN(C3(CNCc4ccccc4)CCCCC3)CC2)[C@@H](c2ccc(Cl)cc2)C1 (some centres undefined)
4 | 330 nM |  | 20% | CC(C)N1C[C@H](C(=O)N2CCN(C3(CNS(=O)(=O)c4ccccc4)CCCCC3)CC2)[C@@H](c2ccc(Cl)cc2)C1
5 | 340 nM |  | 40% | CC(C)N1C[C@H](C(=O)N2CCN(C3(CNS(=O)(=O)Cc4ccccc4)CCCCC3)CC2)[C@@H](c2ccc(Cl)cc2)C1
6 | 35 nM | 390 nM | 72% | CC(C)N1C[C@H](C(=O)N2CCN(C3(CNCc4cccnc4)CCCCC3)CC2)[C@@H](c2ccc(Cl)cc2)C1
7 | 510 nM |  |  | CC(C)N1C[C@H](C(=O)N2CCN(C3(CNC(=O)Cc4ccccc4)CCCCC3)CC2)[C@@H](c2ccc(Cl)cc2)C1
8 | 200 nM |  |  | O=C([C@H]1CN(Cc2ccccc2)C[C@@H]1c1ccc(Cl)cc1)N1CCN(C2(CNCc3ccncc3)CCCCC2)CC1
9 | 3400 nM |  |  | CS(=O)(=O)N1C[C@H](C(=O)N2CCN(C3(CNCc4ccncc4)CCCCC3)CC2)[C@@H](c2ccc(Cl)cc2)C1
10 | 4600 nM |  |  | CCNC(=O)N1C[C@H](C(=O)N2CCN(C3(CNCc4ccncc4)CCCCC3)CC2)[C@@H](c2ccc(Cl)cc2)C1
11 | 29 nM | 1000 nM | 70% | O=C([C@H]1CN(C2CCOCC2)C[C@@H]1c1ccc(Cl)cc1)N1CCN(C2(CNCc3ccccc3)CCCCC2)CC1
12 | 90 nM | 4200 nM | 29% | CC(C)N1C[C@H](C(=O)N2CCN(C3(CNCc4ccc(Cl)cc4)CCCCC3)CC2)[C@@H](c2ccc(Cl)cc2)C1
13 | 190 nM |  |  | CCN(Cc1ccc(OC)cc1)CC1(N2CCN(C(=O)[C@H]3CN(C(C)C)C[C@@H]3c3ccc(Cl)cc3)CC2)CCCCC1
14 | 1200 nM |  |  | CC(C)N1C[C@H](C(=O)N2CCN(C3(CNCc4cc5ccccc5n4C)CCCCC3)CC2)[C@@H](c2ccc(Cl)cc2)C1
15 | 300 nM |  |  | CC(C)N1C[C@H](C(=O)N2CCN(C3(CNCC4CCCCC4)CCCCC3)CC2)[C@@H](c2ccc(Cl)cc2)C1
16 | 2200 nM |  |  | O=C([C@H]1CNC[C@@H]1c1ccc(Cl)cc1)N1CCN(C2(CNCc3ccncc3)CCCCC2)CC1
17 | 220 nM | 110 nM | 49% | CC(C)N1C[C@H](C(=O)N2CCN(C3(CNCc4c[nH]cn4)CCCCC3)CC2)[C@@H](c2ccc(Cl)cc2)C1
18 | 110 nM |  |  | CC(C)N1C[C@H](C(=O)N2CCN(C3(CNCc4ccccc4OC(F)(F)F)CCCCC3)CC2)[C@@H](c2ccc(Cl)cc2)C1
19 | 310 nM |  |  | COCC(C)NCC1(N2CCN(C(=O)[C@H]3CN(C(C)C)C[C@@H]3c3ccc(Cl)cc3)CC2)CCCCC1 (some centres undefined)
20 | 52 nM |  |  | CC(C)N1C[C@H](C(=O)N2CCN(C3(CNCc4ccc([N+](=O)[O-])cc4)CCCCC3)CC2)[C@@H](c2ccc(Cl)cc2)C1
21 | 2700 nM |  |  | CC(C)CN(Cc1ccncc1)CC1(N2CCN(C(=O)[C@H]3CN(C(C)C)C[C@@H]3c3ccc(Cl)cc3)CC2)CCCCC1
22 | 110 nM |  | 9% | NCCC(=O)N1C[C@H](C(=O)N2CCN(C3(CNCc4ccccc4)CCCCC3)CC2)[C@@H](c2ccc(Cl)cc2)C1
23 | 1300 nM |  |  | COc1ccc(CN(CC2(N3CCN(C(=O)[C@H]4CN(C(C)C)C[C@@H]4c4ccc(Cl)cc4)CC3)CCCCC2)OC)cc1
24 | 140 nM |  |  | CC(C)N1C[C@H](C(=O)N2CCN(C3(CNCc4ccccc4C(F)(F)F)CCCCC3)CC2)[C@@H](c2ccc(Cl)cc2)C1
25 | 38 nM | 570 nM | 32% | CC(C)N1C[C@H](C(=O)N2CCN(C3(CNCc4ccco4)CCCCC3)CC2)[C@@H](c2ccc(Cl)cc2)C1
26 | 65 nM | 1100 nM | 16% | CC(C)N1C[C@H](C(=O)N2CCN(C3(CNCc4ccc(N(C)C)cc4)CCCCC3)CC2)[C@@H](c2ccc(Cl)cc2)C1
27 | 100 nM |  | 8% | CNCC(=O)N1C[C@H](C(=O)N2CCN(C3(CNCc4ccccc4)CCCCC3)CC2)[C@@H](c2ccc(Cl)cc2)C1
28 | 180 nM |  | 26% | O=C(C1CCCC1)N1C[C@H](C(=O)N2CCN(C3(CNCc4ccccc4)CCCCC3)CC2)[C@@H](c2ccc(Cl)cc2)C1

Row | Ki (Melanocortin receptor 4 [1]) | EC50 (Melanocortin receptor 4 [2]) | Intrinsic activity (Melanocortin receptor 4 [3]) | Compound
29 | 2800 nM |  |  | COc1ccc(CN(Cc2ccc(OC)cc2)CC2(N3CCN(C(=O)[C@H]4CN(C(C)C)C[C@@H]4c4ccc(Cl)cc4)CC3)CCCCC2)cc1
30 | 16 nM |  | 29% | COc1ccc(CNCC2(N3CCN(C(=O)[C@H]4CN(C(C)C)C[C@@H]4c4ccc(Cl)cc4)CC3)CCCCC2)c(OC)c1
31 | 11 nM | 50 nM | 43% | Cc1c(CNCC2(N3CCN(C(=O)[C@H]4CN(C(C)C)C[C@@H]4c4ccc(Cl)cc4)CC3)CCCCC2)cnn1C
32 | 29 nM | 190 nM | 27% | CC(=O)Nc1ccc(CNCC2(N3CCN(C(=O)[C@H]4CN(C(C)C)C[C@@H]4c4ccc(Cl)cc4)CC3)CCCCC2)cc1
33 | 190 nM |  | 8% | CCCC(=O)N1C[C@H](C(=O)N2CCN(C3(CNCc4ccccc4)CCCCC3)CC2)[C@@H](c2ccc(Cl)cc2)C1
34 | 140 nM |  | 1% | O=C([C@H]1CN(Cc2ccccc2)C[C@@H]1c1ccc(Cl)cc1)N1CCN(C2(CNCc3ccccc3)CCCCC2)CC1
35 | 3100 nM |  |  | CCC(=O)N1C[C@H](C(=O)N2CCN(C3(CNCc4ccncc4)CCCCC3)CC2)[C@@H](c2ccc(Cl)cc2)C1
36 | 27 nM |  |  | CSc1ccc(CNCC2(N3CCN(C(=O)[C@H]4CN(C(C)C)C[C@@H]4c4ccc(Cl)cc4)CC3)CCCCC2)cc1
37 | 210 nM |  | 47% | CC(C)C(=O)N1C[C@H](C(=O)N2CCN(C3(CNCc4ccccc4)CCCCC3)CC2)[C@@H](c2ccc(Cl)cc2)C1
38 | 670 nM |  | 0% | CC(C)C(N)C(=O)N1C[C@H](C(=O)N2CCN(C3(CNCc4ccccc4)CCCCC3)CC2)[C@@H](c2ccc(Cl)cc2)C1 (some centres undefined)
39 | 390 nM |  | 31% | CC(C)N1C[C@H](C(=O)N2CCN(C3(CNCc4nccn4C)CCCCC3)CC2)[C@@H](c2ccc(Cl)cc2)C1
40 | 100 nM |  | 7% | COCC(C)N1C[C@H](C(=O)N2CCN(C3(CNCc4ccccc4)CCCCC3)CC2)[C@@H](c2ccc(Cl)cc2)C1 (some centres undefined)
41 | 3.6 nM |  | 17% | COc1ccc(CNCC2(N3CCN(C(=O)[C@H]4CN(C(C)C)C[C@@H]4c4ccc(Cl)cc4)CC3)CCCCC2)cc1
42 | 24 nM |  | 23% | CC(C)N1C[C@H](C(=O)N2CCN(C3(CNCc4cccc(F)c4)CCCCC3)CC2)[C@@H](c2ccc(Cl)cc2)C1
43 | 190 nM |  | 13% | CC(=O)N1C[C@H](C(=O)N2CCN(C3(CNCc4ccccc4)CCCCC3)CC2)[C@@H](c2ccc(Cl)cc2)C1
44 | 1500 nM |  |  | CC(=O)N(Cc1ccncc1)CC1(N2CCN(C(=O)[C@H]3CN(C(C)C)C[C@@H]3c3ccc(Cl)cc3)CC2)CCCCC1
45 | 2.1 nM |  | 6% | CC(C)Oc1ccc(CNCC2(N3CCN(C(=O)[C@H]4CN(C(C)C)C[C@@H]4c4ccc(Cl)cc4)CC3)CCCCC2)cc1
46 | 1300 nM |  |  | CCN(Cc1ccncc1)CC1(N2CCN(C(=O)[C@H]3CN(C(C)C)C[C@@H]3c3ccc(Cl)cc3)CC2)CCCCC1
47 | 750 nM |  |  | CC(C)N1C[C@H](C(=O)N2CCN(C3(CN(C)Cc4ccncc4)CCCCC3)CC2)[C@@H](c2ccc(Cl)cc2)C1
48 | 690 nM |  |  | CC(C)N1C[C@H](C(=O)N2CCN(C3(CNCCc4ccccn4)CCCCC3)CC2)[C@@H](c2ccc(Cl)cc2)C1
49 | 130 nM |  | 16% | CC(C)N1C[C@H](C(=O)N2CCN(C3(CNCc4ccc(C(F)(F)F)cc4)CCCCC3)CC2)[C@@H](c2ccc(Cl)cc2)C1
50 | 32 nM |  | 21% | COC(=O)c1ccc(CNCC2(N3CCN(C(=O)[C@H]4CN(C(C)C)C[C@@H]4c4ccc(Cl)cc4)CC3)CCCCC2)cc1
51 | 110 nM |  |  | COc1ccc(CN(C)CC2(N3CCN(C(=O)[C@H]4CN(C(C)C)C[C@@H]4c4ccc(Cl)cc4)CC3)CCCCC2)cc1
52 | 8.3 nM |  | 7% | CC(C)N1C[C@H](C(=O)N2CCN(C3(CNCc4ccc5c(c4)OCO5)CCCCC3)CC2)[C@@H](c2ccc(Cl)cc2)C1
53 | 1800 nM |  |  | COc1ccc(CN(CC(C)C)CC2(N3CCN(C(=O)[C@H]4CN(C(C)C)C[C@@H]4c4ccc(Cl)cc4)CC3)CCCCC2)cc1
54 | 1200 nM |  |  | CC(C)N1C[C@H](C(=O)N2CCN(C3(CN)CCCCC3)CC2)[C@@H](c2ccc(Cl)cc2)C1
55 | 210 nM |  | 19% | CCC(=O)N1C[C@H](C(=O)N2CCN(C3(CNCc4ccccc4)CCCCC3)CC2)[C@@H](c2ccc(Cl)cc2)C1
